Like-named read-outs stand apart in the source and are kept apart here.
Columns and labels:
Gram negative bacteria = experiment: MIC on Gram negative bacteria (all strains); type: cell-based; conditions: 5 strains
Protocol: Bacterial suspensions are prepared from an overnight culture in Mueller-Hinton broth and are adjusted, in the same medium, to a final concentration of 5.0×10^4 cells/ml in each well of a 96-well microtiter plate. Substance dilutions (0.3 log) in Mueller-Hinton broth are added to the suspensions in order to have a range of final concentrations from 0.19 to 100 mcg/ml.
Microtiters are then incubated at 37° C. for 18 hours. (See L. D. THRUPP, Susceptibility testing of antibiotics in liquid media, in: Antibiotics in laboratory medicine. V. LORIAN Ed., II edition, 4, 93-150, Williams & Wilkins, Baltimora, Md. 21202 U.S.A.).

[1] = test system: Staphylococcus aureus LC1; experiment: In vivo antiinfective effect on topical mixed infection in mice; design: species or system BALB/c mice; conditions: for S. aureus: Not cured animals (mean CFU/mouse) / S. aureus: Cured animals: 50 mg/day of 1% gel, topical, 5 days; for S. aureus: Cured animals: 5 animals/group; for activity on S. aureus, ST 1226 and ST 1103 compared: mixed topical infection
Protocol: (§1) Male inbred BALB/c mice (C. RIVER), aged 6 weeks were used (5 animals per group).
(§2) The animals were topically infected with pathogenic strains of Tricophyton (Tricophyton quinckeanum NCPF 309) and Staphylococcus (Staphylococcus aureus LC1).
(§3) Suspensions of fungal microaleuriospores and bacteria were adjusted to a final concentration of 5.0×10^7 and 1.0×10^7 cells/ml, respectively. Volumes of 0.2 ml of each suspension were applied onto the upper posterior zone of the animals, which had previously been shaved and gently abraded with a scalpel blade until "glistening". Treatment started 30 hours after the inocula by administering 50 mg of each substance in a gel form (1% test article) on the infected skin once a day for 5 consecutive days. Two days following the last treatment, animals were sacrificed and infected tissue samples were collected. Following homogenization and appropriate dilution in medium, tissue samples were plated (in Mycobiotic agar and Mannitol Salt agar for fungi and bacteria, respectively) to selectively assess the growth of the pathogens. Fungal growth is evaluated by means of an arbitrary scale, while bacterial growth is evaluated by determining the CFUs (Colony Forming Units).

[2] = test system: Tricophyton quinckeanum NCPF 309; experiment: as above; design: species or system BALB/c mice; key to T. quinckeanum: Not cured animals (fungal growth): +++: confluent fungal growth (from a 1ml skin homogenate); ++: semiconfluent fungal growth (from a 1ml skin homogenate); +: moderate fungal growth (from a 1ml skin homogenate); conditions: for T. quinckeanum: Cured animals: 5 animals/group
Protocol: as §1, §2, §3

Tr. mentagrophytes = experiment: MIC on dermatophytes; type: cell-based; conditions: Trichophyton mentagrophytes, read-out: Minimal Inhibitory Concentration
Protocol: (§4) Mycelium fragments, micro and macroaleuriospores are harvested from 7-day fungal cultures grown at 30 ° C. in Potato Dextrose agar by washing them with Sabouraud broth and 0.5% Tween 80. After a coarse filtration and washing, the fungal suspension is resuspended in Yeast Nitrogen Base supplemented with asparagine and glucose (YNBs) to yield a final concentration of 1.0×10^5 infective units/ml in a microtiter plate. The substances (0.3 log dilutions in Y.N.B.s.) are added to the fungal suspensions in order to generate a range of final concentrations from 0.19 to 100 mcg/ml. The microtiter plates are then incubated at 30° C. for 96-120 hours.

Epidermoph. floccosum = experiment: MIC on dermatophytes; type: cell-based; conditions: read-out: Minimal Inhibitory Concentration
Protocol: as §4

Tr. rubrum = experiment: MIC on dermatophytes; type: cell-based; conditions: Trichophyton rubrum, read-out: Minimal Inhibitory Concentration
Protocol: as §4

Tr. quinckeanum = experiment: MIC on dermatophytes; type: cell-based; conditions: Tr. quinckeanum NCPF 309, lab collection; read-out: Minimal Inhibitory Concentration
Protocol: as §4

Microsporum canis = experiment: MIC on dermatophytes; type: cell-based; conditions: read-out: Minimal Inhibitory Concentration
Protocol: as §4

Trichomonas vaginalis = experiment: MIC on protozoa (Trichomonas vaginalis); type: cell-based; conditions: for MIC: Trichomonas vaginalis
Protocol: Protozoal suspensions are prepared from 24-hour cultures grown at 37° C. and 5% CO2 in DIAMOND T.Y.M. broth supplemented with 10% heat-inactivated FCS.
The suspensions are adjusted, in the same medium, to a final concentration of 2.5×10^5 cells/ml in each well of a 96-well microtiter plate. Substance dilutions (0.3 log) are added to the suspensions in order to have a range of final concentrations from 0.19 to 100 mcg/ml. Microtiters are then incubated at 37° C. and 5% CO2 for 24 hours. MIC is referred to as the minimal concentration inhibiting either protozoa or flagella or undulating membrane motility (Cf. JULIANO C., MARTINOTTI M. G., […] P., In vitro effect of microtubule inhibitors on T. vaginalis, Microbiologia, 8:31-42, 1985. LOVGREN T. and SALMELA I., Invitro sensitivity of T. vaginalis and C. albicans to chemotherapeutic agents, Acta Path. Microbiol. Scand.. 86:155-158, 1978).

[3] = 50 mg/day of 1% gel, topical, 5 days
[4] = Tr. mentagrophytes IDI D 1027, clinical isolate (impetiginous eczema, chin)
[5] = Tr. mentagrophytes IDI D 1049, clinical isolate
[6] = Tr. mentagrophytes IDI D 1101, clinical isolate (epidermatomycosis, face)
[7] = Tr. mentagrophytes SG 3 I, clinical isolate (Tinea pedis)
[8] = Tr. mentagrophytes SG 4 II, clinical isolate (Tinea cruris)
[9] = Tr. mentagrophytes SG 5 III, clinical isolate (Tinea pedis)
[10] = Tr. mentagrophytes SG 8 II, clinical isolate (Tinea cruris)
[11] = Epidermoph. floccosum IDI D 0011, clinical isolate (epidermophytosis, foot interdigital)
[12] = Epidermoph. floccosum SG 3 III, clinical isolate
[13] = Epidermoph. floccosum SG 6 II, clinical isolate (Tinea pedis)
[14] = Tr. rubrum IDI D 0222, clinical isolate (onychomycosis, left and right big toes)
[15] = Tr. rubrum IDI D 0252, clinical isolate (impetigo, left arm; prior Rifocin)
[16] = Tr. rubrum IDI D 0261, clinical isolate (dyshidrotic eczema, right foot)
[17] = Tr. rubrum IDI D 1017, clinical isolate (onychomycosis, right big toe; prior Azolmen)
[18] = Tr. rubrum IDI D 1150, clinical isolate (epidermophytosis; prior Gentalyn)
[19] = Tr. rubrum IDI D 1155, clinical isolate
[20] = Tr. rubrum SG 13 III, clinical isolate (Tinea pedis)
[21] = Microsporum canis IDI D 0238, clinical isolate (tricophytosis, right arm; prior Nerisona)
[22] = Microsporum canis IDI D 1011, clinical isolate (eczema, neck; prior Gentalyn and cortisone)
[23] = Microsporum canis IDI D 1123, clinical isolate (epidermophytosis, back; prior Gentalyn)
[24] = Microsporum canis IMM 3868, lab collection
[25] = T. vaginalis SS-2, read-out: Minimal Inhibitory Concentration
[26] = T. vaginalis SS-9, read-out: Minimal Inhibitory Concentration
[27] = T. vaginalis SS-20, Metronidazole resistant, read-out: Minimal Inhibitory Concentration
[28] = T. vaginalis SS-22, Metronidazole resistant, read-out: Minimal Inhibitory Concentration
[29] = T. vaginalis, 4 strains, read-out: Mean MIC

SMILES | MIC (Gram negative bacteria; clinical isolates) | MIC (Gram negative bacteria; lab collection) | S. aureus: Not cured animals (mean CFU/mouse) [1] | S. aureus: Cured animals [1] | activity on S. aureus, ST 1226 and ST 1103 compared [1] | T. quinckeanum: Cured animals [2, 3] | MIC (Tr. mentagrophytes; [4]) | MIC (Tr. mentagrophytes; [5]) | MIC (Tr. mentagrophytes; [6]) | MIC (Tr. mentagrophytes; [7]) | MIC (Tr. mentagrophytes; [8]) | MIC (Tr. mentagrophytes; [9]) | MIC (Tr. mentagrophytes; [10]) | MIC (Epidermoph. floccosum; [11]) | MIC (Epidermoph. floccosum; [12]) | MIC (Epidermoph. floccosum; [13]) | MIC (Tr. rubrum; [14]) | MIC (Tr. rubrum; [15]) | MIC (Tr. rubrum; [16]) | MIC (Tr. rubrum; [17]) | further results
CCCCCCCCCCCOC(=O)C[C@H](C[N+](C)(C)C)OC(=O)CC(C)C [ST 1103, isovaleryl L-carnitine undecyl ester methanesulfonate, reference compound] | 35 µg/mL | 27.5 µg/mL | 40 CFU/mouse | 80% | identical activity on S. aureus | 80% | 12.5 µg/mL | 12.5 µg/mL | 12.5 µg/mL | 12.5 µg/mL | 12.5 µg/mL | 12.5 µg/mL | 12.5 µg/mL | 12.5 µg/mL | 25 µg/mL | 12.5 µg/mL | 12.5 µg/mL | 25 µg/mL | 12.5 µg/mL | 12.5 µg/mL | T. quinckeanum: Not cured animals (fungal growth) [2, 3]: +; MIC (Tr. rubrum; [18]): 12.5 µg/mL; MIC (Tr. rubrum; [19]): 3.12 µg/mL; MIC (Tr. rubrum; [20]): 12.5 µg/mL; MIC (Tr. quinckeanum): 6.25 µg/mL; MIC (Microsporum canis; [21]): 25 µg/mL; MIC (Microsporum canis; [22]): 12.5 µg/mL; MIC (Microsporum canis; [23]): 12.5 µg/mL; MIC (Microsporum canis; [24]): 12.5 µg/mL; MIC (Trichomonas vaginalis; [25]): 25 µg/mL; MIC (Trichomonas vaginalis; [26]): 25 µg/mL; MIC (Trichomonas vaginalis; [27]): 25 µg/mL; MIC (Trichomonas vaginalis; [28]): 25 µg/mL; MIC (Trichomonas vaginalis; [29]): 25 µg/mL
CCCCCCCCCCC(=O)O[C@H](CC(=O)OCc1ccc(COC(=O)C[C@H](C[N+](C)(C)C)OC(=O)CCCCCCCCCC)cc1)C[N+](C)(C)C [ST 1226, bis(undecanoyl L-carnitine chloride)p-xylilene diester] | 35 µg/mL | 26.2 µg/mL | 50 CFU/mouse | 80% | identical activity on S. aureus | 100% | 3.12 µg/mL | 1.56 µg/mL | 1.56 µg/mL | 1.56 µg/mL | 1.56 µg/mL | 3.12 µg/mL | 1.56 µg/mL | 12.5 µg/mL | 6.25 µg/mL | 6.25 µg/mL | 1.56 µg/mL | 1.56 µg/mL | 1.56 µg/mL | 1.56 µg/mL | antifungal activity compared with ST 1103 ([2]; mixed topical infection): greater antinfungal activity than ST 1103; MIC (Tr. rubrum; [18]): 1.56 µg/mL; MIC (Tr. rubrum; [19]): 1.56 µg/mL; MIC (Tr. rubrum; [20]): 1.56 µg/mL; MIC (Tr. quinckeanum): 1.56 µg/mL; MIC (Microsporum canis; [21]): 12.5 µg/mL; MIC (Microsporum canis; [22]): 3.12 µg/mL; MIC (Microsporum canis; [23]): 1.56 µg/mL; MIC (Microsporum canis; [24]): 1.56 µg/mL; greater (fold) activity than ST 1103 (Trichomonas vaginalis; T. vaginalis, ST 1226 vs ST 1103): 2 fold; MIC (Trichomonas vaginalis; [25]): 12.5 µg/mL; MIC (Trichomonas vaginalis; [26]): 12.5 µg/mL; MIC (Trichomonas vaginalis; [27]): 12.5 µg/mL; MIC (Trichomonas vaginalis; [28]): 12.5 µg/mL; MIC (Trichomonas vaginalis; [29]): 12.5 µg/mL
